Laboratory results reported in DBAASP.
In brackets after ≈: the same amount, converted by molar mass. Several values for one entry are separate records, joined by “and”; a condition that tells them apart may be missing. Identical values can stand only once.

Legend:
Assay in all cases: ≥ marks a high value that may be exact or a test limit, other limits are often not marked, values filed in µg/mL are converted to µM
Staphylococcus aureus MR = system: Staphylococcus aureus MR
Pseudomonas aeruginosa = system: Pseudomonas aeruginosa
Escherichia coli = system: Escherichia coli
Staphylococcus aureus = system: Staphylococcus aureus
[1] = system: Escherichia coli NCTC 10418
[2] = system: Staphylococcus aureus NCTC 10788
Candida albicans = system: Candida albicans
[3] = system: Pseudomonas aeruginosa PAO1
[4] = system: Staphylococcus aureus ATCC 25923
Escherichia coli MG1655 = system: Escherichia coli MG1655
[5] = system: Staphylococcus aureus ATCC 29213
[6] = system: Escherichia coli ATCC 35218
[7] = system: Pseudomonas aeruginosa ATCC 27853
Salmonella typhimurium = system: Salmonella typhimurium
[8] = system: Salmonella typhimurium KCTC 1926
[9] = system: Staphylococcus epidermidis KCTC 1917
[10] = system: Pseudomonas aeruginosa KCTC 1637
[11] = system: Bacillus subtilis KCTC 3068
[12] = system: Escherichia coli KCTC 1682
[13] = system: Staphylococcus aureus KCTC 1621

Structure (SMILES): CC[C@H](C)[C@H](NC(=O)[C@H](C)NC(=O)[C@H](CC(C)C)NC(=O)[C@H](Cc1c[nH]c2ccccc12)NC(=O)[C@H](CC(C)C)NC(=O)[C@H](C)N)C(=O)N[C@@H](CCCN=C(N)N)C(=O)N[C@@H](CCCCN)C(=O)N[C@@H](CCCN=C(N)N)C(N)=O [ALWLAIRKR]
- MIC (Staphylococcus aureus MR): ≥ 35.5 µM
- MIC (Pseudomonas aeruginosa): 8.88 µM (≈ 9.99 µg/mL)
- MIC (Escherichia coli): 8.88 µM (≈ 9.99 µg/mL)
- MIC (Staphylococcus aureus): 3.55 µM (≈ 4 µg/mL)

Structure (SMILES): CC[C@H](C)[C@H](NC(=O)[C@H](C)NC(=O)[C@H](CC(C)C)NC(=O)[C@H](Cc1ccc(O)cc1)NC(=O)[C@H](CC(C)C)NC(=O)[C@H](C)N)C(=O)N[C@@H](CCCN=C(N)N)C(=O)N[C@@H](CCCCN)C(=O)N[C@@H](CCCN=C(N)N)C(N)=O [ALYLAIRKR]
- MIC (Staphylococcus aureus MR): 27.2 µM (≈ 30 µg/mL)
- MIC (Pseudomonas aeruginosa): 3.63 µM (≈ 4 µg/mL)
- MIC (Escherichia coli): 3.63 µM (≈ 4 µg/mL)
- MIC (Staphylococcus aureus): 2.72 µM (≈ 3 µg/mL)

Structure (SMILES): CC[C@H](C)[C@H](NC(=O)CNC(=O)[C@H](C)NC(=O)[C@@H](NC(=O)[C@H](C)NC(=O)[C@@H]1CCCN1C(=O)[C@H](CC(C)C)NC(=O)[C@@H](N)Cc1ccccc1)[C@@H](C)CC)C(=O)N[C@@H](CC(C)C)C(=O)N[C@@H](CO)C(=O)N[C@@H](CCC(N)=O)C(=O)N[C@@H](CC(C)C)C(=O)N[C@@H](Cc1ccccc1)C(N)=O [FLPAIAGILSQLF]
- MIC [1]: ≥ 50 µM
- MIC [2]: ≥ 200 µM

Structure (SMILES): CC[C@H](C)[C@H](NC(=O)CNC(=O)[C@@H]1CCCN1C(=O)[C@H](CC(C)C)NC(=O)[C@@H](N)Cc1ccccc1)C(=O)N[C@@H](CC(C)C)C(=O)N[C@@H](CCCCN)C(=O)N[C@H](C(=O)N[C@@H](C)C(=O)N[C@@H](C)C(=O)N[C@@H](CC(N)=O)C(=O)N[C@H](C(=O)N[C@H](C(=O)N1CCC[C@H]1C(=O)NCC(=O)N[C@H](C(=O)N[C@H](C(=O)N[C@H]1CSSC[C@@H](C(=O)O)NC(=O)[C@H](CCCCN)NC(=O)[C@H](CCCCN)NC(=O)[C@H]([C@@H](C)O)NC(=O)[C@H]([C@@H](C)CC)NC(=O)[C@H](C)NC1=O)[C@@H](C)CC)C(C)C)C(C)C)C(C)C)C(C)C [FLPGILKVAANVVPGVICAITKKC]
- MIC [1]: ≥ 256 µM
- MIC [2]: 4 µM and 8 µM

Structure (SMILES): CSCC[C@H](NC(=O)[C@@H](NC(=O)[C@H](CCCCN)NC(=O)[C@H](Cc1cnc[nH]1)NC(=O)[C@H](CC(C)C)NC(=O)CN)C(C)C)C(=O)N[C@@H](CCCN=C(N)N)C(=O)N[C@@H](CCC(=O)O)C(=O)N[C@H](C(=O)N[C@@H](CC(C)C)C(=O)NCC(=O)N[C@@H](Cc1ccc(O)cc1)C(=O)N[C@@H](CCC(=O)O)C(=O)N[C@@H](CCCN=C(N)N)C(=O)N[C@@H](CC(N)=O)C(=O)N[C@@H](CO)C(=O)N[C@@H](Cc1ccc(O)cc1)C(=O)N[C@@H](CCCCN)C(N)=O)C(C)C [GLHKVMREVLGYERNSYK]
- MIC (Candida albicans): > 128 µM
- MIC [3]: > 128 µM
- MIC [4]: > 128 µM
- MIC (Escherichia coli MG1655): ≥ 128 µM

Structure (SMILES): CC[C@H](C)[C@H](NC(=O)[C@@H](NC(=O)[C@@H]1CCCN1C(=O)[C@@H](NC(=O)[C@@H](NC(=O)[C@H](Cc1cnc[nH]1)NC(=O)[C@@H]1CCCN1C(=O)[C@H](CC(C)C)NC(=O)[C@@H](NC(=O)[C@H](Cc1cnc[nH]1)NC(=O)[C@H](CCCCN)NC(=O)[C@H](C)NC(=O)[C@@H](NC(=O)[C@H](CO)NC(=O)CNC(=O)[C@H](CC(C)C)NC(=O)[C@@H](NC(=O)[C@H](CO)NC(=O)[C@H](CC(C)C)NC(=O)[C@H](CC(C)C)NC(=O)CN)C(C)C)C(C)C)C(C)C)C(C)C)C(C)C)C(C)C)C(=O)N[C@@H](C)C(=O)N[C@@H](CCC(=O)O)C(=O)N[C@@H](Cc1cnc[nH]1)C(=O)N[C@@H](CC(C)C)C(N)=O [GLLSVLGSVAKHVLPHVVPVIAEHL]
- MIC [5]: 8 µM (≈ 20.7 µg/mL)
- MIC (Escherichia coli MG1655): ≥ 120 µM

Structure (SMILES): CC[C@H](C)[C@H](NC(C)=O)C(=O)N[C@@H](CC(=O)O)C(=O)NCC(=O)N[C@@H](CC(C)C)C(=O)N[C@@H](CCCCN)C(=O)N[C@@H](C)C(=O)N[C@H](C(=O)N[C@@H](Cc1c[nH]c2ccccc12)C(=O)N[C@@H](CCCCN)C(=O)N[C@@H](CCCCN)C(=O)N[C@H](C(=O)N[C@@H](C)C(=O)N[C@@H](CC(=O)O)C(=O)N[C@@H](CC(C)C)C(=O)N[C@@H](CC(C)C)C(=O)N[C@@H](CCCCN)C(=O)N[C@@H](CC(N)=O)C(=O)N[C@H](C(N)=O)[C@@H](C)O)C(C)C)[C@@H](C)CC [IDGLKAIWKKVADLLKNT]
- MIC [6]: 9 µM (≈ 18.6 µg/mL)
- MIC [7]: 72.5 µM (≈ 150 µg/mL)
- MIC [4]: > 72.5 µM

Structure (SMILES): CC[C@H](C)[C@H](N)C(=O)N[C@@H](CC(C)C)C(=O)N1CCC[C@H]1C(=O)N[C@@H](Cc1c[nH]c2ccccc12)C(=O)N[C@@H](CCCCN)C(=O)N[C@@H](Cc1c[nH]c2ccccc12)C(=O)N1CCC[C@H]1C(=O)N[C@@H](Cc1c[nH]c2ccccc12)C(=O)N[C@@H](C)C(=O)N1CCC[C@H]1C(=O)N[C@@H](C)C(=O)N[C@@H](CCCN=C(N)N)C(=O)N[C@@H](CCCN=C(N)N)C(N)=O [ILPWKWPWAPARR]
- MIC (Salmonella typhimurium): 11.9 µM (≈ 20 µg/mL)
- MIC (Candida albicans): 0.0012 µM (≈ 0.00201 µg/mL)
- MIC (Pseudomonas aeruginosa): 23.9 µM (≈ 40 µg/mL)
- MIC (Escherichia coli): 119 µM (≈ 200 µg/mL)
- MIC (Staphylococcus aureus): 11.9 µM (≈ 20 µg/mL)

Structure (SMILES): CC[C@H](C)[C@H](N)C(=O)N[C@@H](CC(C)C)C(=O)N1CCC[C@H]1C(=O)N[C@@H](Cc1c[nH]c2ccccc12)C(=O)N[C@@H](CCCCN)C(=O)N[C@@H](Cc1c[nH]c2ccccc12)C(=O)N1CCC[C@H]1C(=O)N[C@@H](Cc1c[nH]c2ccccc12)C(=O)N[C@@H](Cc1c[nH]c2ccccc12)C(=O)N[C@@H](CCCCN)C(=O)N[C@@H](Cc1c[nH]c2ccccc12)C(=O)N[C@@H](CCCN=C(N)N)C(=O)N[C@@H](CCCN=C(N)N)C(N)=O [ILPWKWPWWKWRR]
- MIC [8]: 5.16 µM (≈ 10 µg/mL)
- MIC [9]: 5.16 µM (≈ 10 µg/mL)
- MIC [10]: 10.3 µM (≈ 20 µg/mL)
- MIC [11]: 5.16 µM (≈ 10 µg/mL)
- MIC [12]: 10.3 µM (≈ 20 µg/mL)
- MIC [13]: 2.58 µM (≈ 5 µg/mL)

Structure (SMILES): C[C@@H](O)[C@H](NC(=O)[C@H](CCCCN)NC(=O)[C@H](Cc1c[nH]c2ccccc12)NC(=O)[C@H](Cc1c[nH]c2ccccc12)NC(=O)[C@@H](NC(=O)[C@H](CCCCN)NC(=O)[C@@H](N)CCCCN)[C@@H](C)O)C(=O)N[C@@H](Cc1c[nH]c2ccccc12)C(=O)N[C@@H](Cc1c[nH]c2ccccc12)C(=O)N[C@H](C(=O)N[C@@H](CCCCN)C(=O)N[C@@H](Cc1c[nH]c2ccccc12)C(=O)N[C@@H](CO)C(=O)N[C@@H](CCC(N)=O)C(=O)N1CCC[C@H]1C(=O)N[C@@H](CCCCN)C(=O)N[C@@H](CCCCN)C(=O)O)[C@@H](C)O [KKTWWKTWWTKWSQPKK]
- MIC [8]: 2 µM (≈ 4.67 µg/mL)
- MIC [9]: 2 µM (≈ 4.67 µg/mL)
- MIC [10]: 4 µM (≈ 9.34 µg/mL)
- MIC [11]: 2 µM (≈ 4.67 µg/mL)
- MIC [12]: 2 µM (≈ 4.67 µg/mL)
- MIC [13]: 2 µM (≈ 4.67 µg/mL)

Structure (SMILES): CC[C@H](C)[C@H](NC(=O)[C@H](CCCN=C(N)N)NC(=O)[C@@H]1CCCN1C(=O)[C@H](CC(C)C)NC(=O)[C@@H](N)CCCN=C(N)N)C(=O)N[C@@H](Cc1c[nH]c2ccccc12)C(=O)N[C@@H](Cc1c[nH]c2ccccc12)C(=O)N[C@H](C(=O)N[C@@H](CCCN=C(N)N)C(=O)N[C@H](C(=O)N1CCC[C@H]1C(=O)N[C@@H](CCCN=C(N)N)C(N)=O)C(C)C)[C@@H](C)CC [RLPRIWWIRVPR]
- MIC [8]: 1.9 µM (≈ 3.13 µg/mL)
- MIC [9]: 3.79 µM (≈ 6.25 µg/mL)
- MIC [10]: 3.79 µM (≈ 6.25 µg/mL)
- MIC [11]: 3.79 µM (≈ 6.25 µg/mL)
- MIC [12]: 7.58 µM (≈ 12.5 µg/mL)
- MIC [13]: 7.58 µM (≈ 12.5 µg/mL)

Structure (SMILES): CC(C)C[C@H](NC(=O)[C@@H](NC(=O)[C@H](CCCN=C(N)N)NC(=O)[C@H](CCCN=C(N)N)NC(=O)[C@@H](NC(=O)[C@@H](NC(=O)[C@H](CCCN=C(N)N)NC(=O)[C@H](CCCN=C(N)N)NC(=O)[C@@H](NC(=O)[C@H](CC(C)C)NC(=O)[C@@H](N)CCCN=C(N)N)C(C)C)C(C)C)C(C)C)C(C)C)C(=O)N[C@@H](CCCN=C(N)N)C(N)=O [RLVRRVVRRVLR]
- MIC (Staphylococcus aureus MR): ≥ 63.4 µM
- MIC (Staphylococcus aureus): 60.8 µM (≈ 95.9 µg/mL)

Structure (SMILES): CC(C)C[C@H](NC(=O)[C@H](Cc1ccccc1)NC(=O)[C@H](CCCN=C(N)N)NC(=O)[C@H](CCCCN)NC(=O)[C@H](Cc1c[nH]c2ccccc12)NC(=O)[C@H](CCCN=C(N)N)NC(=O)[C@H](CCC(N)=O)NC(=O)[C@@H](NC(=O)[C@H](Cc1c[nH]c2ccccc12)NC(=O)[C@H](CCCN=C(N)N)NC(=O)[C@H](CCCCN)NC(=O)[C@@H](N)Cc1c[nH]c2ccccc12)C(C)C)C(=O)N[C@@H](CCCN=C(N)N)C(N)=O [WKRWVQRWKRFLR]
- MIC [8]: 2 µM (≈ 3.89 µg/mL)
- MIC [9]: 4 µM (≈ 7.78 µg/mL)
- MIC [10]: 16 µM (≈ 31.1 µg/mL)
- MIC [11]: 4 µM (≈ 7.78 µg/mL)
- MIC [12]: 4 µM (≈ 7.78 µg/mL)
- MIC [13]: 2 µM (≈ 3.89 µg/mL)
